Experimental data from PMC3737437, “The malQ gene is essential for starch metabolism in Streptococcus mutans” (Journal of Oral Microbiology, 2013).

Target: T1, GlgP (Streptococcus mutans, UniProt Q8DT31)
T1 construct: gene overlapping malQ by 29 nt, not the second phosphorylase phsG
T1 sequence (Q8DT31 1-758): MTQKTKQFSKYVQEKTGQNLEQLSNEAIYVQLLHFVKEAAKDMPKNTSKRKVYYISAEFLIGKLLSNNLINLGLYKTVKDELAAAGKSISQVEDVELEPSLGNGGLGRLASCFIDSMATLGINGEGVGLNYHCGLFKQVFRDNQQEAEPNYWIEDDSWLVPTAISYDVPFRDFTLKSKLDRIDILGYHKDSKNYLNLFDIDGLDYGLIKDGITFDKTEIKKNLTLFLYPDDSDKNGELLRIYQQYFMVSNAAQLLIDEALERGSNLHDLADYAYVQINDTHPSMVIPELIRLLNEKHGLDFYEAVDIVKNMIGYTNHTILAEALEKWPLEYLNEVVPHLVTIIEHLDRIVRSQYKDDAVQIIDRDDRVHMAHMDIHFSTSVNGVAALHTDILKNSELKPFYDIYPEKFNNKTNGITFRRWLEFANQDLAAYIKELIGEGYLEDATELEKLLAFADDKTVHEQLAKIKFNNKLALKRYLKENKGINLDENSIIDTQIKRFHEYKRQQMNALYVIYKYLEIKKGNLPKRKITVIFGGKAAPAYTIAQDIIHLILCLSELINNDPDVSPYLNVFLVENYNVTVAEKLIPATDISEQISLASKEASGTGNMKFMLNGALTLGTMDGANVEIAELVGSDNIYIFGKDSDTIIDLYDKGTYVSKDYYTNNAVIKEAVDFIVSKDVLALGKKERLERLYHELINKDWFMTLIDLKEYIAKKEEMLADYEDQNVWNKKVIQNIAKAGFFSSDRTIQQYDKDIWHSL
Test: phosphorylase assay, phosphoglucomutase / glucose-6-phosphate dehydrogenase-NADP end-point at […] nm
Assay type: biochemical
Settings: formed from 1% maltodextrin or 0.8% amylodextrin, 50 mM potassium phosphate pH 7, 0.5 mM MgCl2, 37 °C, 10 min

O=P(O)(O)O[C@H]1O[C@H](CO)[C@@H](O)[C@H](O)[C@H]1O [glucose-1-phosphate]
phosphorylase assay, phosphoglucomutase / glucose-6-phosphate dehydrogenase-NADP: generated glucose-1-phosphate from maltodextrin and amylodextrin
